# Reference: patent US20090082333A1, “REMEDY FOR XANTHOMA” (NATIONAL UNIVERSITY CORPORATION KOBE UNIVERSITY, priority 2005, published 2009)
# System: WHHLMI rabbit
# Assay: Xanthomatosis-inhibiting activity in rabbit model (extent of limb xanthoma at digital joints)
# Format: in vivo
# Details: male WHHLMI rabbit, digital joints of forelegs and hind legs; for Distribution of Severity: − (no occurrence), count of limb xanthoma assessments: control 2; for Distribution of Severity: +++ (mass), count of limb xanthoma assessments: control 4; for Distribution of Severity: + (dotting of granule), count of limb xanthoma assessments: control 8; for Distribution of Severity: ++ (scattering), count of limb xanthoma assessments: control 26
# Experimental: A vehicle or the test compound 1 was orally administered to a 2 months old male WHHLMI rabbit (10 to 11 animals/group) in an amount of 100, 200 mg/kg in a mixed diet for 32 weeks. After the administration for 32 weeks, xanthoma was evaluated at the digital joints of forelegs and hind legs (Table 1). The extent of limb xanthoma was assessed by classifying into four stages: no occurrence (−), dotting of granule (+), scattering (++), mass (+++)
# [1] = 100 mg/kg orally in mixed diet for 32 weeks
# [2] = 200 mg/kg orally in mixed diet for 32 weeks
smiles,measurement,setting,value
"COc1cccc([C@H]2O[C@H](CC(=O)N3CCC(CC(=O)O)CC3)C(=O)N(CC(C)(C)COC(C)=O)c3ccc(Cl)cc32)c1OC [Test compound 1, N-{[(3R,5S)-1-(3-acetoxy-2,2-dimethylpropyl)-7-chloro-5-(2,3-dimethoxyphenyl)-2-oxo-1,2,3,5-tetrahydro-4,1-benzoxazepin-3-yl}acetyl}piperidine-4-acetic acid]","Distribution of Severity: − (no occurrence), count of limb xanthoma assessments",[1],4
same,"Distribution of Severity: +++ (mass), count of limb xanthoma assessments",[1],0
same,"Distribution of Severity: + (dotting of granule), count of limb xanthoma assessments",[1],13
same,"Distribution of Severity: ++ (scattering), count of limb xanthoma assessments",[1],27
same,"Distribution of Severity: − (no occurrence), count of limb xanthoma assessments",[2],0
same,"Distribution of Severity: +++ (mass), count of limb xanthoma assessments",[2],0
same,"Distribution of Severity: + (dotting of granule), count of limb xanthoma assessments",[2],29
same,"Distribution of Severity: ++ (scattering), count of limb xanthoma assessments",[2],15
